What follows are compounds tested against T1, FLK-1 receptor (Mus musculus, UniProt P35918) (assay: FLK-1 ELISA (kinase activity of the FLK-1 receptor in FLK-1/NIH3T3 cells, VEGF stimulated)).
T1 construct: expressed in transfected cells; host or cells: NIH3T3 C7#3
Assay type: cell-based
Parameters: concentration or dose not given beside the values
Procedure, shortened: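 NIH3T3 C7#3 cells expressing FLK-1 were seeded at 25.000 cells/well, serum-starved overnight in 0.1% FBS, then treated with compound for two hours at 37°C (final DMSO 0.5%) before VEGF stimulation. Receptor was captured on anti-rabbit IgG-coated ELISA plates bearing affinity-purified anti-FLK-1 antiserum.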

T1 sequence (P35918 20-1345): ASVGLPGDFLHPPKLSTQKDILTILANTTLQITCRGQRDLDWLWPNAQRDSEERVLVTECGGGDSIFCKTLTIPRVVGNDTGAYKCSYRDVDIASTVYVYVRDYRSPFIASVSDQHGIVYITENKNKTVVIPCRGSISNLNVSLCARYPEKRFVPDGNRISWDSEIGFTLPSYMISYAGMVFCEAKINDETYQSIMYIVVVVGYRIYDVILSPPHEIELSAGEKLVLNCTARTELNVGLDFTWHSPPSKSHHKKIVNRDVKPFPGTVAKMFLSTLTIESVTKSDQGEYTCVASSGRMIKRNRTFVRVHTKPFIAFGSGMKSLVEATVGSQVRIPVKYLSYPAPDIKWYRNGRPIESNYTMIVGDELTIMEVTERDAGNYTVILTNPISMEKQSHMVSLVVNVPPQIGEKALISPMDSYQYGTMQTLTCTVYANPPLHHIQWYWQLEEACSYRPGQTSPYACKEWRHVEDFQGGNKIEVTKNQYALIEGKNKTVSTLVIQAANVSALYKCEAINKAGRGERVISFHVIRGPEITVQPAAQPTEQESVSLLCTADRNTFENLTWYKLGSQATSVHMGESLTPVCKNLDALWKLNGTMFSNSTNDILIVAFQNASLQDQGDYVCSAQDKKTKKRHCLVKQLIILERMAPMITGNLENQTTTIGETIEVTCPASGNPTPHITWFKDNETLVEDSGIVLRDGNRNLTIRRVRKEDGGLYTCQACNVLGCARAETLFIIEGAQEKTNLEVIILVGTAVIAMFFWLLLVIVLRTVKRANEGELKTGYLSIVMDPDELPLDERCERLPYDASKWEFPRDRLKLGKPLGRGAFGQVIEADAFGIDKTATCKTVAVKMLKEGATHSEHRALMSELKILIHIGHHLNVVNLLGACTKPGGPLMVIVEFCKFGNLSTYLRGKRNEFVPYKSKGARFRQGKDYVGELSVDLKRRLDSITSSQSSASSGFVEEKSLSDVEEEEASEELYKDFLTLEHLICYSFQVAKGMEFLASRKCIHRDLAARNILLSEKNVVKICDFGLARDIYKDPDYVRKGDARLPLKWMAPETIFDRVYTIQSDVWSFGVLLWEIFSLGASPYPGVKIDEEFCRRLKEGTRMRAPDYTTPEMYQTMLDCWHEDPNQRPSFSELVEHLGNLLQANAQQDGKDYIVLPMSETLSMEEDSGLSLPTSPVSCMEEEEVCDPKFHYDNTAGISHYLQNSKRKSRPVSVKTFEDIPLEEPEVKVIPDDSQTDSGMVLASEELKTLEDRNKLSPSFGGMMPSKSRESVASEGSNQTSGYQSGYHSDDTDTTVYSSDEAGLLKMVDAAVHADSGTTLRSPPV

SMILES	Fik Kinase %Inhibition
O=C1Nc2ccc(I)cc2C1=Cc1c(Br)cnn1-c1ccc(Cl)cc1 [10725/B10]	5.1%
COc1ccc(Br)c(C=C2C(=O)Nc3ccc(I)cc32)c1O [10725/B03]	4.9%
O=C1Nc2ccc(CCCl)cc2C1=Cc1ccc(O)c([N+](=O)[O-])c1 [10724/G03]	-8.4%
CCc1ccc(C=C2C(=O)Nc3ccc(CCCl)cc32)o1 [10724/G10]	7.0%
CN(C)c1ccc(C=C2C(=O)Nc3c(Br)cc(Br)cc32)c2ccccc12 [10724/A02]	1.8%
COc1cc(C)cc(O)c1C=C1C(=O)Nc2c(Br)cc(Br)cc21 [10725/A06]	-7.3%
Cc1c(Br)ccc2c1C(=Cc1cc3c4c(c1O)CCCN4CCC3)C(=O)N2 [10724/C05]	-18.6%
CC(C)(C)c1cc(C=C2C(=O)Nc3ccc(CCCl)cc32)c(O)c(C(C)(C)C)c1 [10723/G11]	-4.1%
O=C1Nc2ccc(S(=O)(=O)N3CCOCC3)cc2C1=Cc1c[nH]c2ccccc12 [10717/F06]	8.9%
COC(=O)Cc1c(Cl)[nH]c(C=C2C(=O)Nc3c(Br)cc(Br)c(C)c32)c1C(=O)OC [10725/A09]	-13.9%
O=C1Nc2ccc(CCCl)cc2C1=Cc1cccn1-c1ccc(Cl)cc1 [10724/G09]	9.1%
Cn1cccc1C=C1C(=O)Nc2ccc(S(=O)(=O)N3CCOCC3)cc21 [10717/F04]	-0.1%
O=C1Nc2ccc(I)cc2C1=Cc1ccc(O)c([N+](=O)[O-])c1 [10724/B03]	-48.9%
CNS(=O)(=O)c1ccc2c(c1)C(=Cc1ccc([N+](=O)[O-])c(O)c1)C(=O)N2 [10724/D04]	0.5%
Cc1c(Br)ccc2c1C(=Cc1ccc([N+](=O)[O-])c(O)c1)C(=O)N2 [10724/C04]	-18.6%
O=C1Nc2ccc(I)cc2C1=Cc1c[nH]cn1 [10725/B11]	-42.3%
O=C1Nc2ccc(S(=O)(=O)N3CCOCC3)cc2C1=Cc1cccs1 [10717/F03]	0.5%
O=CN1CCN(c2ccc(C=C3C(=O)Nc4c(Br)cc(Br)cc43)cc2)CC1 [10725/A07]	-12.3%
Cc1[nH]c(C=C2C(=O)Nc3ccc(S(=O)(=O)Nc4ccc(C(F)(F)F)cc4)cc32)c(Br)c1Br [10717/E11]	8.9%
O=C1Nc2c(Br)cc(Br)cc2C1=Cc1ccc([N+](=O)[O-])c(O)c1 [10724/A04]	-15.9%
CN(C)c1ccc(C=C2C(=O)Nc3ccc(S(=O)(=O)Nc4ccc(C(F)(F)F)cc4)cc32)c2ccccc12 [10724/E02]	17.7%
CNS(=O)(=O)c1ccc2c(c1)C(=Cc1sc3scc(C)c3c1C)C(=O)N2 [10724/D11]	14.9%
CC(C)c1cc(C=C2C(=O)Nc3ccc(S(=O)(=O)Nc4ccc(C(F)(F)F)cc4)cc32)cc(C(C)C)c1O [10724/E06]	8.3%
O=CN1CCN(c2ccc(C=C3C(=O)Nc4ccc(I)cc43)cc2)CC1 [10725/B07]	24.6%
Cc1c(Br)cc(Br)c2c1C(=Cc1c[nH]cn1)C(=O)N2 [10725/A11]	-21.9%
O=C1Nc2ccc(S(=O)(=O)Nc3ccc(C(F)(F)F)cc3)cc2C1=Cc1cc2ccccc2o1 [10724/E07]	-3.6%
O=C1Nc2c(Br)cc(Br)cc2C1=Cc1cccn1-c1ccc(Cl)cc1 [10724/A09]	-5.2%

SMILES	Fik Kinase %Inhibition
Cc1c(Br)ccc2c1C(=Cc1cc3ccccc3o1)C(=O)N2 [10724/C07]	-1.2%
CN(C)c1ccc(C=C2C(=O)Nc3ccc(CCCl)cc32)c2ccccc12 [10724/G02]	15.1%
Cn1cccc1C=C1C(=O)Nc2c(Br)cc(Br)cc21 [10717/A04]	-4.5%
Cc1csc2sc(C=C3C(=O)Nc4ccc(S(=O)(=O)Nc5ccc(C(F)(F)F)cc5)cc43)c(C)c12 [10724/E11]	5.1%
COc1ccc(Br)c(C=C2C(=O)Nc3c(Br)cc(Br)cc32)c1O [10725/A03]	3.6%
Cc1c(Br)cc(Br)c2c1C(=Cc1c(Br)cnn1-c1ccc(Cl)cc1)C(=O)N2 [10725/A10]	-3.2%
Cc1c(Br)ccc2c1C(=Cc1ccc(O)c([N+](=O)[O-])c1)C(=O)N2 [10724/C03]	-20.3%
O=C1Nc2ccc(I)cc2C1=Cc1sccc1Br [10725/B02]	-2.8%
O=C1Nc2ccc(CCCl)cc2C1=Cc1cccc(Br)c1 [10723/G10]	. 3.5%
O=C1Nc2c(Br)cc(Br)cc2C1=Cc1sccc1Br [10725/A02]	-2.0%
CNS(=O)(=O)c1ccc2c(c1)C(=Cc1cc3ccccc3o1)C(=O)N2 [10724/D07]	-2.6%
O=C1Nc2ccc(S(=O)(=O)Nc3ccc(C(F)(F)F)cc3)cc2C1=Cc1ccc([N+](=O)[O-])c(O)c1 [10724/E04]	55.2%
O=C1Nc2ccc(S(=O)(=O)Nc3ccc(C(F)(F)F)cc3)cc2C1=Cc1cc2c3c(c1O)CCCN3CCC2 [10724/E05]	13.8%
O=C1Nc2c(Br)cc(Br)cc2C1=Cc1ccc(O)c([N+](=O)[O-])c1 [10724/A03]	-7.8%
CNS(=O)(=O)c1ccc2c(c1)C(=Cc1ccc(N(C)C)c3ccccc13)C(=O)N2 [10724/D02]	12.4%
O=C1Nc2ccc(S(=O)(=O)Nc3ccc(C(F)(F)F)cc3)cc2C1=Cc1cccn1-c1ccc(Cl)cc1 [10724/E09]	14.3%
O=C1Nc2c(Br)cc(Br)cc2C1=Cc1cc2ccccc2o1 [10724/A07]	3.7%
Cc1csc2sc(C=C3C(=O)Nc4ccc(CCCl)cc43)c(C)c12 [10724/G11]	6.8%
O=C1Nc2ccc(I)cc2C1=Cc1ccc(N2CCOCC2)cc1 [10725/B08]	-24.1%
Cc1cc(C=C2C(=O)Nc3ccc(I)cc32)[nH]n1 [10725/B05]	-61.0%
CC(C)c1cc(C=C2C(=O)Nc3c(Br)cc(Br)cc32)cc(C(C)C)c1O [10724/A06]	-3.7%
O=C1Nc2ccc(CCCl)cc2C1=Cc1cc2ccccc2o1 [10724/G07]	-1.9%
Cc1csc2sc(C=C3C(=O)Nc4ccc(I)cc43)c(C)c12 [10724/B11]	9.0%
O=C1Nc2ccc(S(=O)(=O)N3CCOCC3)cc2C1=Cc1ccc(F)cc1 [10717/F05]	3.2%
CNS(=O)(=O)c1ccc2c(c1)C(=Cc1cccn1-c1ccc(Cl)cc1)C(=O)N2 [10724/D09]	0.9%
Cc1c(Br)ccc2c1C(=Cc1ccc(N(C)C)c3ccccc13)C(=O)N2 [10724/C02]	-0.3%
COc1cccc(O)c1C=C1C(=O)Nc2ccc(S(=O)(=O)Nc3ccc(C(F)(F)F)cc3)cc21 [10717/E10]	4.7%

SMILES	Fik Kinase %Inhibition
O=C1Nc2ccc(I)cc2C1=Cc1cc2ccccc2o1 [10724/B07]	-1.8%
CCOc1ccccc1C=C1C(=O)Nc2ccc(S(=O)(=O)N3CCOCC3)cc21 [10717/F02]	2.2%
O=C1Nc2ccc(I)cc2C1=Cc1cccn1-c1ccc(Cl)cc1 [10724/B09]	3.5%
COC(=O)Cc1c(Cl)[nH]c(C=C2C(=O)Nc3ccc(I)cc32)c1C(=O)OC [10725/B09]	0.4%
Cc1cc(C=C2C(=O)Nc3c(Br)cc(Br)cc32)[nH]n1 [10725/A05]	-13.9%
CC(C)c1cc(C=C2C(=O)Nc3ccc(CCCl)cc32)cc(C(C)C)c1O [10724/G06]	0.1%
CCc1ccc(C=C2C(=O)Nc3ccc(S(=O)(=O)NC)cc32)o1 [10724/D10]	3.7%
CCc1ccc(C=C2C(=O)Nc3ccc(Br)c(C)c32)o1 [10724/C10]	-2.3%
CNS(=O)(=O)c1ccc2c(c1)C(=Cc1cc(C(C)C)c(O)c(C(C)C)c1)C(=O)N2 [10724/D06]	12.4%
CNS(=O)(=O)c1ccc2c(c1)C(=Cc1cc3c4c(c1O)CCCN4CCC3)C(=O)N2 [10724/D05]	-1.6%
Cc1csc2sc(C=C3C(=O)Nc4c(Br)cc(Br)cc43)c(C)c12 [10724/A11]	12.8%
COc1cc(C)cc(O)c1C=C1C(=O)Nc2ccc(I)cc21 [10725/B06]	-0.5%
Cc1c(Br)ccc2c1C(=Cc1cc(C(C)C)c(O)c(C(C)C)c1)C(=O)N2 [10724/C06]	-1.5%
O=C1Nc2c(Br)cc(Br)cc2C1=Cc1cc2c3c(c1O)CCCN3CCC2 [10724/A05]	-15.2%
CCc1ccc(C=C2C(=O)Nc3ccc(I)cc32)o1 [10724/B10]	8.5%
Cc1c(Br)ccc2c1C(=Cc1cccn1-c1ccc(Cl)cc1)C(=O)N2 [10724/C09]	9.3%
CNS(=O)(=O)c1ccc2c(c1)C(=Cc1ccc(O)c([N+](=O)[O-])c1)C(=O)N2 [10724/D03]	0.1%
CCc1ccc(C=C2C(=O)Nc3c(Br)cc(Br)cc32)o1 [10724/A10]	1.6%
CCc1ccc(C=C2C(=O)Nc3ccc(S(=O)(=O)Nc4ccc(C(F)(F)F)cc4)cc32)o1 [10724/E10]	7.3%
O=C1Nc2ccc(S(=O)(=O)Nc3ccc(C(F)(F)F)cc3)cc2C1=Cc1ccc(O)c([N+](=O)[O-])c1 [10724/E03]	10.6%
O=C1Nc2ccc(S(=O)(=O)Nc3ccc(C(F)(F)F)cc3)cc2C1=Cc1ccc[nH]1 [10717/E09]	-1.1%
O=C1Nc2ccc(CCCl)cc2C1=Cc1cc2c3c(c1O)CCCN3CCC2 [10724/G05]	-0.1%
O=C1Nc2c(Br)cc(Br)cc2C1=Cc1ccc(N2CCOCC2)cc1 [10725/A08]	-2.9%
O=C1Nc2ccc(CCCl)cc2C1=Cc1ccc([N+](=O)[O-])c(O)c1 [10724/G04]	-7.9%
Cc1c(Br)ccc2c1C(=Cc1sc3scc(C)c3c1C)C(=O)N2 [10724/C11]	10.3%

Source: patent EP1247803A2, “Indolinone compounds suitable for modulation of protein kinases” (Sugen, Inc., priority 1996, dated 1998)
